Data: patent publication US5514668A (priority 1989, dated 1996)
“Also recorded” adds a separate entry of the source.

Key:
mice = assay: Toxicity on intravenous injection in mice
Protocol: The content of free crown ether compound in this product was not analysed.
(§1) The product A was at a concentration of 1% injected intraveneously in mice which each received a dose of 0.4 ml corresponding to 32×10^-4 g crown ether.
The product B was tested similarily but at a concentration of 10%. The dose was here 0.4 ml corresponding to 6.0×10^-3 g crown ether compound. The content of free crown ether compound in this dose amounted to 1.2×10^-4 g.
Two series of comparison tests were also made with the crown ether monomer.
In the first test benzo-18-crown-6 was injected as aqueous solution having a concentration of 0.8% at a dose of 0.4 ml per animal, corresponding to 32×10^-4 g crown ether.
In the ether comparison test benzo-18-crown-6 was used at a concentration of 0.08%. Also here the dose was 0.4 ml corresponding to 3.2×10^-4 g crown ether.

Coccidia [1] = settings: poultry, admixed in the fodder; cited from earlier work
Coccidia [2] = settings: tissue culture; J. Med. Chem. 1983, 26, 590-592; cited from earlier work
[3] = Elimination in urine of mice (UV analysis); assay type: in vivo; settings: i.v., 1% solution, 0.4 ml
Protocol: as §1

[4] = Elimination of Cs^137 from blood of mice into urine; assay type: in vivo
Protocol: Tests were performed at Fors.o slashed.gsstation Ris.o slashed., Department of Health, Roskilde, Denmark, to investigate the ability of the dextran-crown ether compounds to remove radioactive cesium, Cs^137, from the blood of mice.
Three tests were run, each using five mice.
As basis solution for use as injection liquid or for use as basis for the preparation of such, an aqueous 0,9% sodium chloride solution was used containing Cs^137 in an amount corresponding to 3000 Bq/ml.
In each test the mice were kept in a cage, the bottom of which was a net below which a funnel was arranged for collecting the urine of the mice. After each collection of urine the bottom was flushed with water, and urine plus flushing water were collected and diluted with water to 20 ml before the radioactivity were determined by means of a Geiger counting apparatus.
By this test each mouse was injected with 0,1 ml af the basis solution and thus received 300 Bq Cs^137. The time for this injection, below designated to, was 11:30 .
After one hour each mouse was injected with 0,4 ml of a 6 w/v-% aqueous solution of the dextran-O-carbonylbenzo-18-crown-6-product produced according to Example 1, corresponding to 24 mg of this product per mouse.
Collection of urine with subsequent determination of radioactivity was initiated one hour and […], corresponding to 1.35 hours after to and was continued as it appears from Table I below.
47.81 hours after to a further injection of 0.5 ml of the 6%'s dextran-crown ether-solution was made on each mouse and the collection of urine and determination of radioactivity therein were continued.
At this test the injection solution was a mixture of 2 ml of the above mentioned Cs^137 -containing solution and 8 ml of the dextran-crown ether solution used in Test I.
Each mouse was injected with 0,5 ml of the mixture and thus received 300 Bq Cs^137 and 24 mg dextran-crown ether. Collection of urine and further crown ether injection (0,5 ml 6% solution) was made as in Test 1 as it appears from Table II below.
By this comparison test the injection solution was a mixture of 2 ml of the above mentioned basis solution containing 3000 Bq/ml Cs^137 and 8 ml aqueous 0,9% by weight NaCl-solution. Each mouse was injected using […] of the mixture and thus received 300 Bq Cs^137.

[5] = system: foot-and-mouth desease virus, type A, Holland; parameters: species or system Holland; Guinea pigs; settings: guinea pig, in vivo, sc
[6] = Complexing capability, diffusion test using a membrane cell; assay type: binding; settings: aqueous, alcohol containing solution; relative to free crown ether
[7] = system: foot-and-mouth desease virus, type C, Turup; parameters: species or system Turup; Guinea pigs; settings: guinea pig, in vivo
[8] = system: foot- and -mouth disease virus, type A; settings: mouse, in vivo
[9] = Complexing capability, cesium binding in dialysis hose
Protocol: The resulting solution was transferred to a hose for dialysis having a pore radius of approximately 1.5 nm.
After 12 hours samples taken from the liquid inside the dialysis hose and from the liquid outside the hose in the graduated glass, resp., were measured by means of a gamma counter operating at 0.66 MeV, to determine the ratio of the Cs concentration inside the dialysis hose to the Cs concentration outside the hose. On the basis of these determinations the corresponding amounts of Cs in the two liquids were calculated.

[10] = 0.08% solution, 0.4 ml, 3.2×10^-4 g crown ether

c1ccc2c(c1)OCCOCCOCCOCCOCCO2 [benzo-18-crown-6]
duration of heavy convulsions (mice; [10]): approximately 15 minutes | symptoms and survival (mice; [10]): heavy convulsions appeared; also recorded: the animals survived | reaction compared with product (B) (mice; 3.2×10^-4 g pure compound versus product (B) containing 1.2×10^-4 g unbound): significantly heavier reaction | death of animals (mice; aqueous solution 0.8%, 0.4 ml, 32×10^-4 g crown ether): The animals died immediately before the injection was completed

c1ccc2c(c1)OCCOCCOCCOCCOc1ccccc1OCCOCCOCCOCCO2 [dibenzo-30-crown-10]
in vivo anti-coccidial effect (Coccidia [1]): no in vivo effect was demonstrated | anti-coccidial activity (Coccidia [2]): have an anti-coccocidal activity in tissue culture tests

T40-Dextran-O-carbonylbenzo-18-crown-6 [product A]
signs of illness (mice; i.v., 1% solution, 0.4 ml): did not show any sign of illness | time after which compound was excreted substantially completely in urine [3]: 3 to 5 h

T40-Dextran-O-carbonylbenzo-18-crown-6 [product B]
symptoms after injection (mice; i.v., 10% solution, 0.4 ml): subdued after having received this dose and had bristled furs; also recorded: thereafter they did not shown any symptoms | duration of being subdued with bristled furs (mice; i.v., 10% solution, 0.4 ml, several animals): approximately 30 minutes

dextran-O-carbonylbenzo-18-crown-6 [dextran-crown ether]
radioactivity in urine + flushing water ([4]; Test 1, 1.35 hours after to, 24 mg per mouse given one hour after Cs^137): 6978 counts | radioactivity in urine + flushing water ([4]; Test 1, 4.63 hours after new to (second injection)): 3533 counts | radioactivity in urine + flushing water ([4]; Test 1, 4.83 hours after to): 3684 counts | radioactivity in urine + flushing water ([4]; Test 1, 8.67 hours after new to (second injection)): 2937 counts | radioactivity in urine + flushing water ([4]; Test 1, 8.88 hours after to): 8280 counts | radioactivity in urine + flushing water ([4]; Test 1, 20.07 hours after to): 17001 counts | radioactivity in urine + flushing water ([4]; Test 1, 22.28 hours after new to (second injection)): 6391 counts | radioactivity in urine + flushing water ([4]; Test 1, 44.92 hours after to): 17368 counts | radioactivity in urine + flushing water ([4]; Test 1, 47.78 hours after to): 2213 counts | Counts, total (accumulated) ([4]; Test 1, time 1.35): 6978 counts | Counts, total (accumulated) ([4]; Test 1, time 4.83): 10662 counts | Counts, total (accumulated) ([4]; Test 1, time 20.07): 35943 counts | Counts, total (accumulated) ([4]; Test 1, time 44.92): 53311 counts | Counts, total (accumulated) ([4]; Test 1, time 47.78): 55524 counts | Counts, total (accumulated) ([4]; Test 1, time 52.41): 59057 counts | Counts, total (accumulated) ([4]; Test 1, time 56.45): 61994 counts | Counts, total (accumulated) ([4]; Test 1, time 67.06): 68385 counts | radioactivity in urine + flushing water ([4]; Test 2, 0.87 hours after to, 24 mg per mouse injected in mixture with Cs^137): 4498 counts | radioactivity in urine + flushing water ([4]; Test 2, 4.33 hours after new to (second injection)): 3659 counts | radioactivity in urine + flushing water ([4]; Test 2, 4.62 hours after to): 11634 counts | radioactivity in urine + flushing water ([4]; Test 2, 8.40 hours after new to (second injection)): 3222 counts | radioactivity in urine + flushing water ([4]; Test 2, 8.65 hours after to): 8566 counts | radioactivity in urine + flushing water ([4]; Test 2, 19.82 hours after to): 16805 counts | radioactivity in urine + flushing water ([4]; Test 2, 22.08 hours after new to (second injection)): 4966 counts | radioactivity in urine + flushing water ([4]; Test 2, 44.65 hours after to): 12901 counts | radioactivity in urine + flushing water ([4]; Test 2, 47.53 hours after to): 2728 counts | Counts, total (accumulated) ([4]; Test 2, time 0.87): 4498 counts | Counts, total (accumulated) ([4]; Test 2, time 8.65): 24698 counts | Counts, total (accumulated) ([4]; Test 2, time 19.82): 41503 counts | Counts, total (accumulated) ([4]; Test 2, time 44.65): 54411 counts | Counts, total (accumulated) ([4]; Test 2, time 47.53): 57139 counts | Counts, total (accumulated) ([4]; Test 2, time 51.86): 60798 counts | Counts, total (accumulated) ([4]; Test 2, time 55.93): 64020 counts | Counts, total (accumulated) ([4]; Test 2, time 69.53): 68986 counts | speed of excretion of Cs^137 after the second injection ([4]; approximately 8 hours after second injection): somewhat increased speed of excretion | more radioactive Cs excreted than in comparison Test 3 ([4]; approximately 70 hours, Tests 1 and 2 versus Test 3): approximately 17% | speed of elimination of Cs^137 ([4]; first 5-8 hours after the first injection): significantly increased | reduction of the number of blisters [5]: a reduction of the number of blisters was obtained | capability of complexing metals, such as sodium ions [6]: has been maintained | antiviral activity [7]: exhibited an antiviral activity at all three days | effect on viral activity [8]: impedes the viral activity | significance of titre difference versus virus control [8]: not significant

dextran-hydroxyethylbenzo-18-crown-6
capability of catching and binding cesium ions [9]: substantial capability of catching and binding cesium ions | Cs in liquid inside the hose ([9]; after 12 h): 658 µg | Cs in liquid outside the hose ([9]; after 12 h): 1362 µg | Cs conc. inside hose/Cs conc. outside hose ([9]; after 12 h, gamma counter): 1.2 | Cs conc. inside hose/Cs conc. outside hose ([9]; initially): 1 | Cs in liquid inside the hose ([9]; initially): 520 µg | Cs in liquid outside the hose ([9]; initially): 1500 µg
